From patent US20040019092A1, “Non-peptide somatostatin receptor ligands” (priority 2001, published 2004)
“And” between values parts separate entries of the source, which are not always exact repeats. Equal entries are not always repeated.

Assays:
[1] = molecular target: SS1 (Rattus norvegicus, UniProt P30680); test: SS-1 binding (Bind SS1 D.H.)
[2] = molecular target: T1, SSTR1 (Homo sapiens, UniProt P30872); test: Binding SSTR1; details: > = extrapolated value; read-out: Bind SSTR1
T1 construct: host or cells: SRIF receptor expressing cell cultures (general statement only)
T1 sequence (P30872 whole entry, species assumed): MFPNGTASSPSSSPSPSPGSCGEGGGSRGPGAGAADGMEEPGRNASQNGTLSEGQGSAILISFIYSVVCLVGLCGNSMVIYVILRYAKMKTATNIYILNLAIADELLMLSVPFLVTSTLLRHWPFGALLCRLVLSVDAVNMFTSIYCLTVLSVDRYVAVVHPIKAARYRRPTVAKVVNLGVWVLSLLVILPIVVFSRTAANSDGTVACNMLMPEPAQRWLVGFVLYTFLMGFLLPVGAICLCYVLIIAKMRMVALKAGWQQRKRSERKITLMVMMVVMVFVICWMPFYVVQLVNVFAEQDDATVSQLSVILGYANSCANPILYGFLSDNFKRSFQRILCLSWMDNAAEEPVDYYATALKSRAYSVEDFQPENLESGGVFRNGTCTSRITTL

[3] = molecular target: T2, human sst2 receptor sub-type (Homo sapiens, UniProt P30874); test: In vitro binding, human sst2 receptor sub-type (SSTR2); details: Tables 8/9: Bind SSTR2 nM
T2 construct: host or cells: SRIF receptor expressing cell cultures (general statement only)
T2 sequence (P30874 whole entry): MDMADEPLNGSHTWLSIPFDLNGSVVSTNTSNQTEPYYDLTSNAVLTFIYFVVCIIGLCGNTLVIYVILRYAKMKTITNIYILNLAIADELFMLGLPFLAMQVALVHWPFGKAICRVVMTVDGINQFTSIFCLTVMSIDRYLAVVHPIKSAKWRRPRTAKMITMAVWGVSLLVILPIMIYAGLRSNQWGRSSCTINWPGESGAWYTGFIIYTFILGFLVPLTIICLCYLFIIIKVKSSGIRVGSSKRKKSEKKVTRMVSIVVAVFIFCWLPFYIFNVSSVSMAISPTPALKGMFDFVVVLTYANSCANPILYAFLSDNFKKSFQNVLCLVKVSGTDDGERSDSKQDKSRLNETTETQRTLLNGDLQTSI
Procedure: The in vitro binding affinities for rat cortex SRIF receptors and the human sst2 receptor sub-type was assessed. Further the in vitro inhibition of the GHRH induced GH secretion in primary cultures of rat pituitary cells as well as the in vivo inhibition of GH secretion in the rat after systemic or enteral application was studied. […] Therefore, the in vivo activities of the compounds in rats with respect to inhibition of growth hormone release was also assessed. Most compounds selected were tested by enteral—intraduodenal (i.d.) application. For determination of the absolute activity and for the calculation of an enteral bioavailability, single subcutaneous (s.c.) application of intravenous (i.v.) infusion was used.

[4] = molecular target: T3, SSTR5 (Homo sapiens, UniProt P35346); test: Binding SSTR5; details: read-out: Bind SSTR5
T3 construct: host or cells: SRIF receptor expressing cell cultures (general statement only)
T3 sequence (P35346 whole entry, species assumed): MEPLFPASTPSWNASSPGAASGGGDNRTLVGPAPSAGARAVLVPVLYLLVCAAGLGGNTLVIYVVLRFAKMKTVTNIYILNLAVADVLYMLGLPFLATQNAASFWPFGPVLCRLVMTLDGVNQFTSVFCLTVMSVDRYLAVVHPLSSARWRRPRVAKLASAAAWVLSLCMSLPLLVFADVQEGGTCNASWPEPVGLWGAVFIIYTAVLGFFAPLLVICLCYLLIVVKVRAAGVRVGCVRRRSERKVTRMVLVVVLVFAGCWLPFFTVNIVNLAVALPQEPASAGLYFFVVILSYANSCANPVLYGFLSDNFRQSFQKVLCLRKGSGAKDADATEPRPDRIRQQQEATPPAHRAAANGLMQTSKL

[5] = system: GH secretion; test: GH secretion in vivo, rat, intraduodenal (enteral) application, 1 h (basal); details: basal GH secretion, 1 h after intraduodenal application, mostly approximate ID50 from single 10 mg/kg dose, Ø = no effect at this dose, > = extrapolated value, 10 mg/kg
Procedure: (§1) Animals, anesthesia: Male rats of a Sprague Dawley strain (Ico:OFA-SD, Iffa-Credo, F-Lyon) of 200-300 g body weight were used. They were kept under standardized conditions and were anesthetized with pentobarbital-sodium (Siegfried, CH Zofingen), 60 mg/kg i.p. for subcutaneous and intraduodenal applications. Animals designed for an infusion experiment were anesthetized with urethane (Siegfried, CH Zofingen), 1.2 g/kg i.p.
(§2) Compounds: The compounds were dissolved, optionally with the aid of one or more of the following adjuncts:
(§3) Stock solutions of the compounds were prepared in water with the addition of the necessary adjunct(s). Further dilutions were prepared allowing 5 mL/kg for subcutaneous application, 2 mL for intraduodenal (i.d.) application or 4.5 mL/kg for intravenous infusion. The solutions for the intravenous application/infusion were made isotonic by addition of glucose to a final concentration of 5%.
(§4) Applications were made, or, in the case of infusion, started, approximately 10 minutes after induction of anesthesia. No further treatment followed subcutaneous or intraduodenal application. Ten, twenty-five and fifty-five minutes after start of the intravenous infusion the GH secretion was stimulated with repeated intravenous injections of the potent GHRH analog, D-Ala2 GHRH1-29NH2, 1 μg/kg.
(§5) One hour after subcutaneous or intraduodenal application of the compounds, blood was collected from the trunk after decapitation. In the case of application by infusion, 5 minutes after each application of GHRH, a blood sample of 0.8 mL was taken from a V. jugularis and mixed with EDTA (Eppendorf tubes TOM14, Milian, CH Geneva). The blood samples were kept on ice and spun in a cooled centrifuge. The serum or plasma was separated and frozen.
(§6) Statistics: In each experiment, 4-5 animals were used per dose, with 6 to 8 animals as the control group that received the vehicle. The GH serum/plasma levels were averaged, the mean of the treated groups expressed in percent of the control group and the ID50-value for the inhibition of the secretion was determined graphically (log-probit) for each experiment. In most experiments with enteral (intraduodenal) application only 1 dose, 10 mg/kg, was given. […] Only inhibitions between 20 and 80% were considered reliable.
(§7) Two to four experiments were performed. In the case of proper dose response curves, allowing the determination of an ID50 values were averaged logarithmically. In the cases of single dose-experiments, the GH value in percent of control were averaged logarithmically and the ID50 for this value was taken from the table. ID50 values determined at the different time points during the infusion were averaged and this value was included in the tables.

[6] = system: GHRH stimulated GH secretion; test: GH secretion in vivo, rat, intravenous infusion with repeated GHRH stimulation
Procedure: as §1, §3, §4, §5, §6, §7

[7] = molecular target: T4, SSTR3 (Homo sapiens, UniProt P32745); test: Binding SSTR3; details: > = extrapolated value; read-out: Bind SSTR3
T4 construct: host or cells: SRIF receptor expressing cell cultures (general statement only)
T4 sequence (P32745 whole entry, species assumed): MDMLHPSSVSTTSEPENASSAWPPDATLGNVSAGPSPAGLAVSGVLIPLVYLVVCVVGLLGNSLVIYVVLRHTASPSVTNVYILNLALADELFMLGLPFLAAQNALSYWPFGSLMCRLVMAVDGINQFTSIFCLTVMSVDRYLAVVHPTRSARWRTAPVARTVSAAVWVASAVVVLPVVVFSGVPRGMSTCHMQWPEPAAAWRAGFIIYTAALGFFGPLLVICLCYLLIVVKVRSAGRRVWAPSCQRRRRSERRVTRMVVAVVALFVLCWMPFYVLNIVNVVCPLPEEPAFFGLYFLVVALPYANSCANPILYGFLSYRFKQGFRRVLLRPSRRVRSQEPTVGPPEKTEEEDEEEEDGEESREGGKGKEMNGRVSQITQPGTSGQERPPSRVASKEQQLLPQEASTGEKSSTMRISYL

[8] = molecular target: T5, SSTR4 (Homo sapiens, UniProt P31391); test: Binding SSTR4; details: > = extrapolated value; read-out: Bind SSTR4
T5 construct: host or cells: SRIF receptor expressing cell cultures (general statement only)
T5 sequence (P31391 whole entry, species assumed): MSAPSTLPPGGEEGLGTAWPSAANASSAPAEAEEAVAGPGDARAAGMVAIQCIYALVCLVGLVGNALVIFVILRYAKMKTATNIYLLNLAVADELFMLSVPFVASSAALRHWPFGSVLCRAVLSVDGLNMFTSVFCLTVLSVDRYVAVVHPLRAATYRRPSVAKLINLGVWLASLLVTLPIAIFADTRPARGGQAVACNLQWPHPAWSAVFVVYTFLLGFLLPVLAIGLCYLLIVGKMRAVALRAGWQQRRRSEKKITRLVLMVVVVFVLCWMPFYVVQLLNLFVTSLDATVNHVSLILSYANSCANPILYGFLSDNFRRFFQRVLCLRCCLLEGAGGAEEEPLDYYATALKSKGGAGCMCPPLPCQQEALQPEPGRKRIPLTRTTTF

[9] = system: GH secretion; test: GH secretion in vivo, rat, subcutaneous application, 1 h (basal); details: rat, basal GH secretion, 1 h after subcutaneous application
Procedure: as §1, §2, §3, §4, §5, §6, §7

[10] = system: basal plasma levels of growth hormone, glucagon, insulin and glucose; test: Endocrine parameters in the Rhesus monkey after subcutaneous administration; assay type: in vivo
Procedure: Therefore, they were further investigated in the Rhesus monkey and their activity profile was determined. Using subcutaneous administration, they were characterized in this species, by measuring their effects on the basal plasma levels of growth hormone, glucagon, insulin as well changes in glucose levels.
Animals and blood sampling: Rhesus monkeys, fed on the previous day in the morning with fruits only, were placed, slightly anesthetized with ketamin (Ketalar©, Parke-Davis), in primate chairs and brought to the experimental room. A catheter, consisting of an in-dwelling cannula (Vasocan Braunüle, 20G, B. Braun Melsungen AG, D-Melsungen), an extension line made from PP 800/110/260/100 Portex© tubing and a special adapter between cannula and tubing with a minimal void volume, was placed in a saphenic vein. The total volume of this catheter was approximately 0.7 mL. The distal end was placed through a hole in the wall to the adjacent room in order to allow infusion and blood sampling without being noticed by the animal. The animals were monitored with a video system.
During the entire duration of the experiment an infusion of 5 to 10 mL/h of isotonic saline (NaCl 0.9% Braun, B. Braun Medical AG, CH-Emmenbrücke) containing heparin sodium 80 mg/L (Biochemie GMBH, A-Kundl) was maintained, using a roller pump (Vario-Perpex, Guldener, CH-Zürich). At each sampling time 1.5 mL (twice the void volume of the catheter) was taken in one syringe before collecting the actual blood sample of 2 mL in another syringe. The first 1.5 mL were reinfused immediately after the actual sample had been taken. The sample was mixed with 0.1 mL of a mixture containing EDTA (ethlenediaminetetraacetic acid tetrasodium Fluka, CH-Buchs) and aprotinin (Trasylol©, Bayer) resulting in final concentrations of 1.8 mg/mL and 1000 KIE/mL, respectively. The blood samples were kept on ice and spun in a cooled centrifuge. […]
Determinations: The blood levels of the hormones were determined by radioimmunoassay (RIA) using the appropriate antisera, antibodies, labels and standards, glucose by an enzymatic assay: […]

SS1, sequence (P30680 whole entry): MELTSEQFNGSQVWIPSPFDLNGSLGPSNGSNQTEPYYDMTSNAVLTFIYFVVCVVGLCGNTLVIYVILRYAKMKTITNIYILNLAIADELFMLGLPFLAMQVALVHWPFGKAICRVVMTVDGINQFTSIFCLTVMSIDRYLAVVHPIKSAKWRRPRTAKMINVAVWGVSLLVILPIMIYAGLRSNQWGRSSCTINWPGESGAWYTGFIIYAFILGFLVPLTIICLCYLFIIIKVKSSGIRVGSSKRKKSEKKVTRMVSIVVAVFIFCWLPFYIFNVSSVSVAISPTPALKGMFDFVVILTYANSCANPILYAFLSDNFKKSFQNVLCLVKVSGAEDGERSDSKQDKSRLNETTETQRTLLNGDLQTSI

Cc1cccc2c(CC3C(=O)N(CCCCCN)C(=O)N3S(=O)(=O)c3ccc(Oc4ccc(O)cc4)c(C(=O)N(C)C)c3)c[nH]c12 (stereo not drawn) [Compound 46]
Bind SS1 D.H. [1]: 0.63 nM | IC50 [2]: > 1000 nM | IC50 [3]: 0.43 nM | IC50 [4]: 90 nM | GH vivo i.d. 1 h ID50 [5]: 19 mg/kg | INFUS. + GHRH ID50 MEAN ([6]; Table 4, mean of infusion time points): 7.89 µg/kg | INFUS. + GHRH ID50 15′ ([6]; Table 4, urethan, 15′ of infusion): 9.38 µg/kg | INFUS. + GHRH ID50 30′ ([6]; Table 4, urethan, 30′ of infusion): 8.14 µg/kg | INFUS. + GHRH ID50 60′ ([6]; Table 4, urethan, 60′ of infusion): 6.43 µg/kg | GH, Ur Inf15′ +GHRH ([6]; Tables 8/9, urethane, 15′ of infusion): 9.400 µg/kg/h | GH, UR Inf30′ +GHRH ([6]; Tables 8/9, urethane, 30′ of infusion): 8.100 µg/kg/h | GH, UR Inf60′ +GHRH ([6]; Tables 8/9, urethane, 60′ of infusion): 6.400 µg/kg/h | GH vivo Inf + GHRH ID50 (mean of time points) ([6]; urethane, i.v. infusion, GHRH stimulated, listed as 46 b): 7.89 µg/kg/h and 7.900 µg/kg/h | IC50 [7]: 450 nM | IC50 [8]: > 1000 nM | GH vivo s.c. 1 h ID50 [9]: 7.4 µg/kg and 7 µg/kg | GH vivo s.c. 1 h ID50 ([9]; listed as 46 b): ˜7.40 μg/kg | dose levels necessary for inhibition of hormone release, times higher than Octreotride [10]: about 100 times
